Test results: patent publication US20160066603A1, “FULVIC ACID AND DERIVATIVES AND METHODS OF PREPARATION AND USE” (EMPIRE TECHNOLOGY DEVELOPMENT LLC, priority 2013, published 2016)

Format: physicochemical
Procedure: The degradation products of Example 1, recovered after three hours of hydrolysis, were evaluated as antioxidants and thermal stabilizers for PVC, low density polyethylene (LDPE), and polyvinyl alcohol (PVA) to evaluate the anti-oxidation efficiency using thermal analysis techniques (DSC, TGA, and DTG). The thermooxidative enthalpy change from DSC curves (e.g. FIGS. 1-3) and the % of HCl loss as a function of temperature represent the stability of polyethylene and PVC respectively.
The mechanism of stabilizing PVC is based on capturing the evolved HCl from dehydrochlorination by the metal ions and the transition metal, accordingly deactivating the catalytic role of HCl in the thermal decomposition.

fulvic acid
Stability compared with the PVC control polymer: more stable than the PVC control polymer
